The inhibition is the drop in the measured response relative to a control, in per cent. Broadly, the Cmax is the highest concentration seen after dosing. For orientation: IC50 means the midpoint of a concentration-inhibition curve. What is called Ki is a measure of affinity in units of concentration, obtained from inhibition or displacement.

Each structure is given as a SMILES string.

Results on two molecules are retold here after article PMC6152678, “In Vitro Comparative Study of the Inhibitory Effects of Mangiferin and Its Aglycone Norathyriol towards UDP-Glucuronosyl Transferase (UGT) Isoforms” (Molecules : A Journal of Synthetic Chemistry and Natural …, 2017).

For one data set, the target named is T1, UGT1A9 (Homo sapiens, UniProt O60656).
T1 construct: purchased BD Gentest Corp. (Woburn, MA, USA); host or cells: baculovirus-infected insect cells
T1 sequence (O60656 26-530): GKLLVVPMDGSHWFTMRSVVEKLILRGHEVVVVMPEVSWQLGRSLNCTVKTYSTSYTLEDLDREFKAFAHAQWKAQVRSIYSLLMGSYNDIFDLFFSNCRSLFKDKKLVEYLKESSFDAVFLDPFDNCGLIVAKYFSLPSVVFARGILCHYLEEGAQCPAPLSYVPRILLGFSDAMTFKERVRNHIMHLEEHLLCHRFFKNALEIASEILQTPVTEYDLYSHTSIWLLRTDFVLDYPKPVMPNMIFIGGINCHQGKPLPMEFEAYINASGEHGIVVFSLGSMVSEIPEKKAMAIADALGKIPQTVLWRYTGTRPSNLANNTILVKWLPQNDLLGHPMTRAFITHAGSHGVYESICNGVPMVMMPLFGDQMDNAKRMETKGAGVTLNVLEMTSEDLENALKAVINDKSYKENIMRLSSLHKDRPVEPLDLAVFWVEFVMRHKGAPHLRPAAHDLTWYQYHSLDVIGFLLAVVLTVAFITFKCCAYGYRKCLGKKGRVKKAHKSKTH
Kind of data set: Inhibition of recombinant UGT-catalyzed 4-MU glucuronidation. The format is biochemical. As to conditions: for inhibition at 30 min, 100 µM: human, pH 7.4, probe 4-methylumbelliferone (4-MU), 30 μM, 100 μM compound, 4-MU probe substrate, negative = activation. The protocol:
(§1) Sigma-Aldrich (St Louis, MO, USA) provided the following constituents in the incubation mixture: 4-methylumbelliferone (4-MU), 4-methylumbelliferone-β-D-glucuronide (4-MUG), Tris-HCl, 7-hydroxycoumarin, and uridine-diphosphoglucuronic acid (UDPGA) (trisodium salt). All other compounds were of high-performance liquid chromatography (HPLC) grade or of the highest grade commercially available. For enzyme sources, recombinant UGT isoforms expressed in baculovirus-infected insect cells were purchased from BD Gentest Corp. (Woburn, MA, USA), including UGT1A1, 1A3, 1A6, 1A7, 1A8, 1A9, 1A10, 2B4, 2B7, 2B15, and 2B17.
(§2) 4-MU, a nonspecific probe substrate for all the UGT isoforms, was employed to investigate the inhibition of MEF and NIR towards the activity of UGT isoforms. The incubation and analytical methods have been previously described. […] MEF and NIR were dissolved in the DMSO to make a stock solution of 20 mM, and various concentrations of working solutions were prepared through dilution with DMSO. 4-MU was used as a non-selective substrate of UGTs. There was a 5-min pre-incubation step at 37 °C before the reaction was initiated by the addition of UDPGA. 4-MU and inhibitors were previously dissolved in DMSO, and the total concentration of DMSO was 1%. The reactions were continued at 37 °C for 120 min for UGT1A1, UGT1A3, UGT1A10, UGT2B4, UGT2B7, UGT2B15 and UGT2B17, 30 min for UGT1A6, UGT1A7, UGT1A8, and UGT1A9, respectively. Reactions were terminated by the addition of 100 μL acetonitrile with 7-hydroxycoumarin (100 μM) as internal standard. The incubation mixtures were then centrifuged at 12,000 r/min for 10 min. 2 μL supernatant was injected into the UPLC system for analysis. An ACQUITY UPLC System (Waters, Milford, MA, USA) equipped with UV detector was used to analyze the samples, and the separation of all the compounds were carried out using a ACQUITY UPLC® BEH C18 (2.1 × 100 mm, 1.7 μm Waters) at a flow rate of 0.2 mL/min and UV detector at 316 nm. The mobile phase was consisted of ultrapure water containing 0.5% formic acid (A) and acetonitrile (B). The following gradient condition was used: 0–3.5 min, 10–65% B; 3.5–4.0 min, 65% B; 4.0–9.0 min, 10% B. To calculate the standard curve 0.1–100 μM of 4-MUG was used through drawing the peak area ration of 4-MUG/internal standard towards the concentration range of 4-MUG. The curve was linear over this concentration range, with an r^2 value > 0.99.
(§3) The inhibition type and Kinetics were determined for the inhibition of NTR towards UGT1A3, UGT1A7 and UGT1A9. The glucuronidation velocity of 4-MU was determined at multiple concentrations of 4-MU and NTR. Dixon and Lineweaver–Burk plots were employed to determine the inhibition type, and the second plot of the slopes from the Lineweaver–Burk plot versus the compound concentrations was utilized to calculate the Ki value. The determination of IC50 was calculated using Probit analysis in SPSS11.5 (SPSS, Chicago, IL, USA). The Student’s t-test was adopted at a significance level of p < 0.05 to determine statistically significant differences among experimental groups.

Another data set concerns the target T2, UGT1A3 (Homo sapiens, UniProt P35503).
T2 construct: purchased BD Gentest Corp. (Woburn, MA, USA); host or cells: baculovirus-infected insect cells
T2 sequence (P35503 29-534): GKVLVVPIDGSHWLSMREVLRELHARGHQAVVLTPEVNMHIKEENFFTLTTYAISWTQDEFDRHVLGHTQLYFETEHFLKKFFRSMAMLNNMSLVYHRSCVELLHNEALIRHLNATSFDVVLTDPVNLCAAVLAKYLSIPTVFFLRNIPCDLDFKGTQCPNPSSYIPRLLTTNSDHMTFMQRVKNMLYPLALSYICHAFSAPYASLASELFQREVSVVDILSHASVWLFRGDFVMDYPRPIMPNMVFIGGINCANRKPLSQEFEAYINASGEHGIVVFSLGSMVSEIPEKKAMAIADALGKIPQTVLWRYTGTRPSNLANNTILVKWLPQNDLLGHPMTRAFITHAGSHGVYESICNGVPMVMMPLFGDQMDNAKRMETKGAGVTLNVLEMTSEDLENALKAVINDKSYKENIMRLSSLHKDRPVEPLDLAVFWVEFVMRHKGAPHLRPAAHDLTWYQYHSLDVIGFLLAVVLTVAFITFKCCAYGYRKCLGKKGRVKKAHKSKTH
Described as above. The format is biochemical. As to conditions: for inhibition at 120 min, 100 µM: human, pH 7.4, probe 4-methylumbelliferone (4-MU), 1200 μM, 100 μM compound, 4-MU probe substrate, negative = activation. The protocol: as §1, §2, §3

On the set-up of data set [1]: method as in PMID 27130074. As to conditions: after administration of 200 mg/kg MGF; cited from earlier work.
[2] abbreviates: Dixon plot and Lineweaver-Burk plot.

Take `O=c1c2cc(O)c(O)cc2oc2cc(O)c([C@@H]3O[C@H](CO)[C@@H](O)[C@H](O)[C@H]3O)c(O)c12` [MGF, 1,3,6,7-tetrahydroxyxanthone-C-2-β-D-glucoside]: on UGT1A9, the inhibition at 30 min, 100 µM was found to be 8.2%. In addition, at UGT1A3, the inhibition at 120 min, 100 µM was -16%. The Cmax in data set [1] is given as 202.58 ng/mL.
As to `O=c1c2cc(O)c(O)cc2oc2cc(O)cc(O)c12` [NTR, 1,3,6,7-tetrahydroxyxanthone], the IC50 is 12.3 µM on UGT1A9 (4-MU glucuronidation, Probit analysis, read-out: IC50 towards UGT1A9) and 8.2 µM at UGT1A3 (4-MU glucuronidation, Probit analysis, read-out: IC50 towards UGT1A3). The “inhibition type towards UGT1A9” value at UGT1A9 (setting [2]) is “competitively inhibited”. Also, on UGT1A9, the inhibition at 30 min, 100 µM was 94.2%. The Ki was 2.8 µM on UGT1A9 (second plot of Lineweaver-Burk slopes, read-out: inhibition constant (Ki) towards UGT1A9) and 1.6 µM on UGT1A3 (second plot of Lineweaver-Burk slopes, read-out: inhibition constant (Ki) towards UGT1A3). Besides, the “inhibition type towards UGT1A3” value on UGT1A3 (setting [2]) is “competitively inhibited”. The inhibition at 120 min, 100 µM at UGT1A3 is 87.6%. Besides, the AUCNTR/AUCMGF in data set [1] was under 3%. Moreover, the Cmax in data set [1] is recorded as under 3 ng/mL.
